Where “and” joins values, the source holds several entries; their conditions need not be identical. Equal values may be shown once.
Experiment: xn = mol fraction of the nth substance listed
Settings: 101 kPa

CCC(O)CO (stereo unspecified) + O
viscosity
Settings	293.15 K	298.15 K	303.15 K	308.15 K	313.15 K	318.15 K	323.15 K
x1 = 0.005	1.087 mPa·s	0.964 mPa·s	0.865 mPa·s	0.783 mPa·s	–	–	–
x1 = 0.0099	–	–	0.935 mPa·s	0.838 mPa·s	0.756 mPa·s	0.687 mPa·s	0.628 mPa·s
x1 = 0.01	1.188 mPa·s	1.034 mPa·s	0.919 mPa·s	0.824 mPa·s	–	–	–
x1 = 0.015	1.285 mPa·s	1.129 mPa·s	0.978 mPa·s	–	–	–	–
x1 = 0.02	1.372 mPa·s	1.204 mPa·s	1.099 mPa·s and 1.052 mPa·s	0.976 mPa·s	0.874 mPa·s	0.789 mPa·s	0.716 mPa·s
x1 = 0.0299	–	–	1.268 mPa·s	1.117 mPa·s	0.993 mPa·s	0.89 mPa·s	0.802 mPa·s
x1 = 0.0401	–	–	1.459 mPa·s	1.275 mPa·s	1.126 mPa·s	1.002 mPa·s	0.9 mPa·s
x1 = 0.0496	–	–	1.639 mPa·s	1.422 mPa·s	1.247 mPa·s	1.104 mPa·s	0.986 mPa·s
x1 = 0.0599	–	–	1.856 mPa·s	1.599 mPa·s	1.394 mPa·s	1.229 mPa·s	1.092 mPa·s
x1 = 0.0701	–	–	2.073 mPa·s	1.776 mPa·s	1.54 mPa·s	1.351 mPa·s	1.193 mPa·s
x1 = 0.0799	–	–	2.279 mPa·s	1.944 mPa·s	1.679 mPa·s	1.467 mPa·s	1.292 mPa·s
x1 = 0.0899	–	–	2.493 mPa·s	2.12 mPa·s	1.823 mPa·s	1.587 mPa·s	1.395 mPa·s
x1 = 0.0999	–	3.41 mPa·s	2.736 mPa·s and 2.855 mPa·s	2.311 mPa·s and 2.445 mPa·s	1.98 mPa·s and 2.138 mPa·s	1.718 mPa·s	1.506 mPa·s
x1 = 0.2006	–	6.704 mPa·s	5.489 mPa·s	4.586 mPa·s	3.907 mPa·s	–	–
x1 = 0.3009	–	10.27 mPa·s	8.312 mPa·s	6.887 mPa·s	5.759 mPa·s	–	–
x1 = 0.4001	–	14.49 mPa·s	11.54 mPa·s	9.39 mPa·s	7.779 mPa·s	–	–
x1 = 0.5025	–	19.54 mPa·s	15.45 mPa·s	12.42 mPa·s	10.14 mPa·s	–	–
x1 = 0.5987	–	25.28 mPa·s	19.39 mPa·s	15.5 mPa·s	12.54 mPa·s	–	–
x1 = 0.702	–	31.76 mPa·s	24.06 mPa·s	18.94 mPa·s	15.12 mPa·s	–	–
x1 = 0.8038	–	38.27 mPa·s	28.82 mPa·s	22.48 mPa·s	17.7 mPa·s	–	–
x1 = 0.8972	–	45.12 mPa·s	33.44 mPa·s	25.72 mPa·s	20.14 mPa·s	–	–

NCCN + OCCCCO
viscosity [mPa·s]
Settings	293.15 K	298.15 K	303.15 K	308.15 K	313.15 K	318.15 K
x1 = 0.0733	100	74.8	55.2	43.2	33.4	–
x1 = 0.1427	101	75.2	55.3	44.5	33.8	–
x1 = 0.2094	98.8	72.8	53.1	42.5	32	28.8
x1 = 0.2728	92.3	67.6	49.1	39.1	29.5	25.8
x1 = 0.3334	82.3	60.1	43.5	34.4	25.7	22.6
x1 = 0.3913	69.3	50.5	36.8	29.2	22	19.3
x1 = 0.4467	55.9	40.8	29.9	23.7	18.2	16.1
x1 = 0.4999	42.7	31.5	23.4	19	14.5	12.9
x1 = 0.551	32.1	23.8	18	14.6	11.3	10.3
x1 = 0.5999	23.8	17.9	13.7	11.3	8.84	8.14
x1 = 0.6469	17.4	13.2	10.2	8.63	7.05	6.33
x1 = 0.6921	12.7	9.92	7.8	6.62	5.34	4.99
x1 = 0.7358	9.34	7.44	5.91	5.11	4.17	3.95
x1 = 0.7777	7.02	5.61	4.57	4	3.28	3.13
x1 = 0.8181	5.28	4.3	3.53	3.15	2.61	2.51
x1 = 0.8572	4.06	3.38	2.78	2.5	2.1	2.02
x1 = 0.9311	2.51	2.11	1.78	1.63	1.41	1.37
